Values after ≈ are worked out from the molar mass of the structure shown. Blank lines part the entries; values can stand above or below the compound they belong to.
Experiments:
P-gp = assay: Apparent permeability in MDCK cells harboring Pgp; assay type: ADME, cell-based, Canis lupus familiaris; settings: dog, MDCK-MDR1
Plasma [1] = assay: Drug uptake in plasma of formalin-induced nociception Sprague-Dawley rat model at 100 mg/kg, po; assay type: ADME, organism-based; settings: in vivo
Plasma [2] = assay: Drug uptake in plasma of Sprague-Dawley rat at 100 mg/kg, po; assay type: ADME, organism-based; settings: in vivo
Plasma [3] = assay: Drug uptake in Sprague-Dawley rat plasma at 30 mg/kg, po; assay type: ADME, organism-based; settings: in vivo
Plasma [4] = assay: Unbound drug uptake in plasma of Sprague-Dawley rat at 30 mg/kg, po; assay type: ADME, organism-based; settings: in vivo
[5] = Oral bioavailability in rat at 100 mg/kg administered via gavage by LC-MS/MS analysis; assay type: ADME, organism-based; settings: in vivo
Plasma [6] = assay: Unbound drug uptake in plasma of formalin-induced nociception Sprague-Dawley rat model at 100 mg/kg, po; assay type: ADME, organism-based; settings: in vivo
[7] = Volume of distribution at steady state in rat at 0.5 mg/kg, iv by LC-MS/MS analysis; assay type: ADME, organism-based; settings: in vivo, read-out: Vdss
Plasma [8] = assay: Drug uptake in plasma of Sprague-Dawley rat at 300 mg/kg, po; assay type: ADME, organism-based; settings: in vivo
Plasma [9] = assay: Drug uptake in plasma of formalin-induced nociception Sprague-Dawley rat model at 30 mg/kg, po; assay type: ADME, organism-based; settings: in vivo
Plasma [10] = assay: Unbound drug uptake in plasma of Sprague-Dawley rat at 300 mg/kg, po; assay type: ADME, organism-based; settings: in vivo
[11] = Aqueous solubility of compound in PBS buffer; assay type: physicochemical
Plasma [12] = assay: Unbound drug uptake in plasma of Sprague-Dawley rat at 100 mg/kg, po; assay type: ADME, organism-based; settings: in vivo
[13] = Ratio of drug uptake in brain to plasma of formalin-induced nociception Sprague-Dawley rat model at 100 mg/kg, po; assay type: ADME, organism-based; settings: read-out: BPR
Plasma [14] = assay: Unbound drug uptake in plasma of formalin-induced nociception Sprague-Dawley rat model at 30 mg/kg, po; assay type: ADME, organism-based; settings: in vivo
[15] = Oral bioavailability in rat at 10 mg/kg administered via gavage by LC-MS/MS analysis; assay type: ADME, organism-based; settings: in vivo
[16] = Oral bioavailability in rat at 40 mg/kg administered via gavage by LC-MS/MS analysis; assay type: ADME, organism-based; settings: in vivo
[17] = Oral bioavailability in rat at 30 mg/kg administered via gavage by LC-MS/MS analysis; assay type: ADME, organism-based; settings: in vivo

SMILES: O=C(COc1cccc2cccnc12)Nc1ccccc1N1CCOCC1
Papp (P-gp): 37 ×10⁻⁶ cm/s

SMILES: Nc1cccnc1-c1cccc(C(=O)Nc2cccc(C(F)(F)F)c2-c2cccnc2)c1
concentration (Plasma [1]): 1570 nM
concentration (Plasma [2]): 1800 nM
concentration (Plasma [3]): 549 nM
Cp(f) (Plasma [4]): 98 nM
bioavailability [5]: 73%
Cp(f) (Plasma [6]): 281 nM
Vd [7]: 1.29 L/kg
concentration (Plasma [8]): 3990 nM
concentration (Plasma [9]): 342 nM
Cp(f) (Plasma [10]): 714 nM
solubility [11]: 470 µM (≈ 204 µg/mL)
Cp(f) (Plasma [12]): 322 nM
Kp [13]: 0.36
Cp(f) (Plasma [14]): 61 nM

SMILES: O=C(Nc1cccc(C(F)(F)F)c1-c1cccnc1)c1cccc(-c2ncccc2Cl)c1
Vd [7]: 1.27 L/kg
bioavailability [15]: 58%
solubility [11]: 10 µM (≈ 4.54 µg/mL)

Continued, values first:

Vd [7]: 0.57 L/kg
bioavailability [16]: 26%
solubility [11]: 22 µM (≈ 10.7 µg/mL)
SMILES: O=C(Nc1cccc(C(F)(F)F)c1-c1cccnc1)c1cccc(-c2ncccc2C(F)(F)F)c1

bioavailability [17]: 92%
Vd [7]: 3 L/kg
Papp (P-gp): 31 ×10⁻⁶ cm/s
solubility [11]: 56 µM (≈ 27.2 µg/mL)
SMILES: O=C(Nc1cccc(C(F)(F)F)c1-c1cccnc1)c1cccc(-c2ncccc2OC(F)F)c1

Vd [7]: 1.4 L/kg
bioavailability [15]: 54%
solubility [11]: 12 µM (≈ 5.03 µg/mL)
SMILES: O=C(Nc1cccc(C(F)(F)F)c1-c1cccnc1)c1cccc(-c2ccccn2)c1

From ChEMBL document CHEMBL4052739, “Discovery of a biarylamide series of potent, state-dependent NaV1.7 inhibitors” (Bioorg Med Chem Lett, 2017)
